This note sets out measurements from ChEMBL document CHEMBL1156491, “Unexpected inhibition of peptidoglycan LD-transpeptidase from Enterococcus faecium by the beta-lactam imipenem” (J Biol Chem, 2007).

The subject of assay [1] is Enterococcus faecium. Description: Inhibition of Enterococcus faecium M512 PBP5fm transpeptidase activity assessed as lactoyl penta-peptide level. Also noted: scale not given: the % may be the effect or the level left.
For assay [2], the system named is Enterococcus faecium. Description: Inhibition of Enterococcus faecium LD-transpeptidase assessed by formation of Ac2-L-Lys-D-[14C]Ala from Ac2-L-Lys-D-Ala and D-[14C]Ala at 0.5 ug/ml.
Assay [3] concerns Enterococcus faecium. Description: Antimicrobial activity against Enterococcus faecium M512 by agar dilution method after 48 hrs. Type of assay: functional. As to conditions: M512, 48 h. A general note: In agar dilution, organisms are placed on agar that contains the substance at set levels.
The subject of assay [4] is Enterococcus faecium. Description: Inhibition of Enterococcus faecium M512 PBP5fm transpeptidase activity assessed as tetra-aspartate-tetra-aspartate-tetra-aspartate multimer containing D-Ala4 to D-Asp-L-Lys3 cross links at 128 ug/ml by mass spectrometry. More on the design: scale not given: the % may be the effect or the level left.
The subject of assay [5] is Enterococcus faecium. As to the kind of experiment: Inhibition of Enterococcus faecium LD transpeptidase assessed as enzyme aduct at 3.4 uM by mass spectrometry.
Assay [6] deals with Enterococcus faecium. As to the kind of experiment: Inhibition of Enterococcus faecium M512 […] transpeptidase activity assessed as tetra-aspartate-tri multimer containing D-Ala4 to D-Asp-L-Lys3 cross links at 128 ug/ml by mass spectrometry. Also noted: scale not given: the % may be the effect or the level left.
Assay [7] has as its system Enterococcus faecium. Description: Inhibition of Enterococcus faecium M512 PBP5fm transpeptidase activity assessed as tetra -aspartate-penta-aspartate multimer containing D-Ala4 to D-Asp-L-Lys3 cross links at 128 ug/ml by mass spectrometry. More on the design: scale not given: the % may be the effect or the level left.
Assay [8] deals with Enterococcus faecium. Description: Inhibition of Enterococcus faecium M512 PBP5fm transpeptidase activity assessed as lactoyl tetra-aspartate-peptide level. Also noted: scale not given: the % may be the effect or the level left.
In assay [9] the test system is Enterococcus faecium. Description: Inhibition of Enterococcus faecium M512 PBP5fm transpeptidase activity assessed as lactoyl tetra-peptide level. More on the design: scale not given: the % may be the effect or the level left.
The test system of assay [10] is Enterococcus faecium. As to the kind of experiment: Inhibition of Enterococcus faecium M512 PBP5fm transpeptidase activity assessed as tetra -aspartate-penta multimer containing D-Ala4 to D-Asp-L-Lys3 cross links at 128 ug/ml by mass spectrometry. More on the design: scale not given: the % may be the effect or the level left.
The test system of assay [11] is Enterococcus faecium. As to the kind of experiment: Inhibition of Enterococcus faecium M512 PBP5fm transpeptidase activity assessed as tetra-aspartate-tri-aspartate multimer containing D-Ala4 to D-Asp-L-Lys3 cross links at 128 ug/ml by mass spectrometry. Also noted: scale not given: the % may be the effect or the level left.
The subject of assay [12] is Enterococcus faecium. Description: Inhibition of Enterococcus faecium M512 PBP5fm transpeptidase activity assessed as tetra -aspartate-tetra multimer containing D-Ala4 to D-Asp-L-Lys3 cross links at 128 ug/ml by mass spectrometry. More on the design: scale not given: the % may be the effect or the level left.
The subject of assay [13] is Enterococcus faecium. Description: Inhibition of Enterococcus faecium M512 PBP5fm transpeptidase activity assessed as lactoyl tri-aspartate-peptide level. Also noted: scale not given: the % may be the effect or the level left.
In assay [14] the test system is Enterococcus faecium. As to the kind of experiment: Inhibition of Enterococcus faecium M512 PBP5fm transpeptidase activity assessed as tetra-aspartate-tetra-aspartate-penta-aspartate multimer containing D-Ala4 to D-Asp-L-Lys3 cross links at 128 ug/ml by mass spectrometry. Also noted: scale not given: the % may be the effect or the level left.
Assay [15] deals with Enterococcus faecium. As to the kind of experiment: Inhibition of Enterococcus faecium M512 PBP5fm transpeptidase activity assessed as tetra -aspartate-tetra -aspartate-tri-aspartate multimer containing D-Ala4 to D-Asp-L-Lys3 cross links at 128 ug/ml by mass spectrometry. More on the design: scale not given: the % may be the effect or the level left.
The nature of assay [16]: Inhibition of Enterococcus faecium LD-transpeptidase assessed by formation of Ac2-L-Lys-D-[14C]Ala from Ac2-L-Lys-D-Ala and D-[14C]Ala.
Assay [17] has as its system Enterococcus faecium. As to the kind of experiment: Inhibition of Enterococcus faecium M512 PBP5fm transpeptidase activity assessed as lactoyl penta-aspartate-peptide level. More on the design: scale not given: the % may be the effect or the level left.
Assay [18] has as its system Enterococcus faecium. Description: Antimicrobial activity against Enterococcus faecium D344S by agar dilution method after 48 hrs. It is filed as functional.
The subject of assay [19] is Enterococcus faecium. Description: Inhibition of Enterococcus faecium M512 PBP5fm transpeptidase activity assessed as lactoyl tripeptide level. More on the design: scale not given: the % may be the effect or the level left.
The test system of assay [20] is Enterococcus faecium. As to the kind of experiment: Inhibition of Enterococcus faecium M512 PBP5fm transpeptidase activity assessed as tetra -aspartate-tetra-aspartate multimer containing D-Ala4 to D-Asp-L-Lys3 cross links at 128 ug/ml by mass spectrometry. More on the design: scale not given: the % may be the effect or the level left.
Assay [21] deals with Enterococcus faecium. As to the kind of experiment: Inhibition of Enterococcus faecium M512 LDtfm transpeptidase activity assessed as tri-aspartate-tri-aspartate-tri-aspartate multimer containing L-Lys3 to D-Asp-L-Lys3 cross links at 8 ug/ml. Also noted: scale not given: the % may be the effect or the level left.
For assay [22], the system named is Enterococcus faecium. Description: Inhibition of Enterococcus faecium M512 LDtfm transpeptidase activity assessed as tri-aspartate-tri-aspartate-penta-aspartate multimer containing L-Lys3 to D-Asp-L-Lys3 cross links at 8 ug/ml. Also noted: scale not given: the % may be the effect or the level left.
Assay [23] concerns Enterococcus faecium. As to the kind of experiment: Inhibition of Enterococcus faecium M512 LDtfm transpeptidase activity assessed as tri-aspartate-penta multimer containing L-Lys3 to D-Asp-L-Lys3 cross links at 8 ug/ml. More on the design: scale not given: the % may be the effect or the level left.
In assay [24] the test system is Enterococcus faecium. Description: Inhibition of Enterococcus faecium M512 LDtfm transpeptidase activity assessed as tri-aspartate-tri-aspartate-tetra-aspartate multimer containing L-Lys3 to D-Asp-L-Lys3 cross links at 8 ug/ml. Also noted: scale not given: the % may be the effect or the level left.
Assay [25] relates to Enterococcus faecium. As to the kind of experiment: Inhibition of Enterococcus faecium M512 LDtfm transpeptidase activity assessed as tri-aspartate-penta-aspartate multimer containing L-Lys3 to D-Asp-L-Lys3 cross links at 8 ug/ml. Also noted: scale not given: the % may be the effect or the level left.
Assay [26] deals with Enterococcus faecium. As to the kind of experiment: Inhibition of Enterococcus faecium M512 LDtfm transpeptidase activity assessed as tri-aspartate-tri-aspartate multimer containing L-Lys3 to D-Asp-L-Lys3 cross links at 8 ug/ml. More on the design: scale not given: the % may be the effect or the level left.
For assay [27], the system named is Enterococcus faecium. As to the kind of experiment: Inhibition of Enterococcus faecium M512 LDtfm transpeptidase activity assessed as tri-aspartate-tri-aspartate-tetra multimer containing L-Lys3 to D-Asp-L-Lys3 cross links at 8 ug/ml. More on the design: scale not given: the % may be the effect or the level left.
The test system of assay [28] is Enterococcus faecium. As to the kind of experiment: Inhibition of Enterococcus faecium M512 LDtfm transpeptidase activity assessed as tri-aspartate tri multimer containing L-Lys3 to D-Asp-L-Lys3 cross links at 8 ug/ml. Also noted: scale not given: the % may be the effect or the level left.
Assay [29] relates to Enterococcus faecium. As to the kind of experiment: Inhibition of Enterococcus faecium M512 LDtfm transpeptidase activity assessed as tri-aspartate-tetra multimer containing L-Lys3 to D-Asp-L-Lys3 cross links at 8 ug/ml. Also noted: scale not given: the % may be the effect or the level left.
For assay [30], the system named is Enterococcus faecium. As to the kind of experiment: Inhibition of Enterococcus faecium M512 LDtfm transpeptidase activity assessed as tri-aspartate-tetra-aspartate multimer containing L-Lys3 to D-Asp-L-Lys3 cross links at 8 ug/ml. More on the design: scale not given: the % may be the effect or the level left.

Structures are written as SMILES. Values after ≈ are worked out from the molar mass of the structure shown. Active and inactive are the calls of the source. The calls are words filed in the database; no cut-off is given here.

`CC(O)[C@H]1C(=O)N2C(C(=O)O)=C(SCCNC=N)C[C@H]12` (single isomer, unassigned) [IMIPENEM ANHYDROUS]: the Activity with Enterococcus faecium [1] was determined as 2.8%; with Enterococcus faecium [4] it was 1.6%; with Enterococcus faecium [6], 0.9%; in the assay on Enterococcus faecium [7] it was 11.9%; in the assay on Enterococcus faecium [8], 3%; in the assay with Enterococcus faecium [9], 2.2%. The Activity in the assay with Enterococcus faecium [10] was 0.8%; with Enterococcus faecium [11], 23.8%; in the assay with Enterococcus faecium [12] it was 1.7%; in the assay with Enterococcus faecium [13] it was 4.5%; in the assay with Enterococcus faecium [14], 3.3%; with Enterococcus faecium [15], 24.7%. Moreover, the Activity came to 5.4% in the assay on Enterococcus faecium [17], 1.4% with Enterococcus faecium [19] and 12% with Enterococcus faecium [20]. The outcome in the assay with Enterococcus faecium [2] and in the assay with Enterococcus faecium [5] was Active. Also, the MIC worked out at 0.5 µg/mL (≈ 1.67 µM) against Enterococcus faecium [3] and 0.25 µg/mL (≈ 0.835 µM) against Enterococcus faecium [18]. Besides, the EC50 in assay [16] is 0.077 µg/mL (≈ 0.257 µM).

On to `CC(O)[C@H]1C(=O)N2C(C(=O)O)=C(S[C@@H]3CN[C@H](C(=O)N(C)C)C3)[C@H](C)[C@H]12` (single isomer, unassigned) [MEROPENEM], for which the values for the MIC with Enterococcus faecium [3] and against Enterococcus faecium [18] were 8 µg/mL (≈ 20.9 µM) and 1 µg/mL (≈ 2.61 µM), respectively.

Turning to `CC1(C)S[C@@H]2[C@H](NC(=O)[C@H](N)c3ccccc3)C(=O)N2[C@H]1C(=O)O` [AMPICILLIN], the Activity is 6.1% in the assay with Enterococcus faecium [21]; 1.8% in the assay on Enterococcus faecium [22]; 1.3% in the assay with Enterococcus faecium [1]; 6.8% in the assay on Enterococcus faecium [23]; 2.7% in the assay on Enterococcus faecium [24]; 10.6% in the assay on Enterococcus faecium [8]. The Activity in the assay on Enterococcus faecium [9] came out at 0.5%; in the assay on Enterococcus faecium [25], 6.1%; in the assay on Enterococcus faecium [26], 18.7%; in the assay on Enterococcus faecium [13], 18.4%; with Enterococcus faecium [27], 3%; with Enterococcus faecium [28], 2.8%. For the same molecule, the Activity in the assay with Enterococcus faecium [29] stood at 3.7%; in the assay on Enterococcus faecium [17], 3.7%; in the assay with Enterococcus faecium [19] it was 7%; in the assay with Enterococcus faecium [30] it was 6.8%. Also, the figures for the MIC in the assay with Enterococcus faecium [3] and against Enterococcus faecium [18] were more than 2000 µg/mL and 0.06 µg/mL (≈ 0.172 µM), respectively. Besides, in [16], the EC50 was more than 3200 µg/mL.

As for `CO/N=C(\C(=O)N[C@@H]1C(=O)N2C(C(=O)O)=C(CSc3nc(=O)c(O)nn3C)CS[C@H]12)c1csc(N)n1` [CEFTRIAXONE], in the assay on Enterococcus faecium [2], the Activity stood at 200 µg/mL. Also, the results for the MIC in the assay with Enterococcus faecium [3] and with Enterococcus faecium [18] were 128 µg/mL (≈ 231 µM) and 2 µg/mL (≈ 3.61 µM), respectively. This molecule showed an EC50 in assay [16] of 19 µg/mL (≈ 34.3 µM).

On to `CC1C(S[C@@H]2CN[C@H](C(=O)Nc3cccc(C(=O)O)c3)C2)=C(C(=O)O)N2C(=O)[C@H]([C@H](C)O)[C@@H]12` (some centres not stated) [ETRAPENEM], for which the MIC against Enterococcus faecium [3] worked out at 16 µg/mL (≈ 33.6 µM); in the assay with Enterococcus faecium [18] it was 1 µg/mL (≈ 2.1 µM).

The term MIC denotes the lowest concentration found to suppress growth. Usually EC50 stands for the concentration that produces a half-maximal response.
